# From US7223865B2, “Chromogenic compounds, and use thereof as enzyme substrates” (Biomerieux, priority 2003, dated 2007)
# What was measured:
# Assay type in all cases: cell-based
# [1] = system: Pseudomonas aeruginosa (NCTC 10662); assay: pyroglutamine-aminopeptidase activity on gelled medium, Example 9; design: key to growth: ++ means good growth; + means moderate growth; +/− means poor growth; NG means no growth
# Procedure: (§1) A gelled medium comprising this substrate is prepared as follows: 30 mg of each substrate are dissolved (heating) in 10 ml of sterile distilled water. Ten ml of this solution are then added to 90 ml of Columbia agar kept molten at 50° C.
# (§2) Various strains of microorganisms derived from the NCTC collection (National Collection of Type Cultures, Colindale, UK) were seeded onto the media thus obtained according to the multipoint inoculation described in example 8 above.
# (§3) The colonies formed were examined visually after incubation for 24 h and 48 h. The color and the growth of these colonies were noted.
# [2] = system: Salmonella typhimurium (NCTC 74); assay: as above; design: key to growth: ++ means good growth; + means moderate growth; +/− means poor growth; NG means no growth
# Procedure: as §1, §2, §3
# [3] = system: Shigella sonnei (NCTC 9774); assay: as above; design: key to growth: ++ means good growth; + means moderate growth; +/− means poor growth; NG means no growth
# Procedure: as §1, §2, §3
# [4] = system: Serratia marcescens (NCTC 10211); assay: as above; design: key to growth: ++ means good growth; + means moderate growth; +/− means poor growth; NG means no growth
# Procedure: as §1, §2, §3
# [5] = system: Salmonella poona (NCTC 4840); assay: as above; design: key to growth: ++ means good growth; + means moderate growth; +/− means poor growth; NG means no growth
# Procedure: as §1, §2, §3
# [6] = system: Klebsiella pneumonia (NCTC 10896); assay: as above; design: key to growth: ++ means good growth; + means moderate growth; +/− means poor growth; NG means no growth
# Procedure: as §1, §2, §3
# [7] = system: Escherichia coli 0157 (NCTC 12079); assay: as above; design: key to growth: ++ means good growth; + means moderate growth; +/− means poor growth; NG means no growth
# Procedure: as §1, §2, §3
# [8] = system: Burkholderia cepacia (NCTC 10743); assay: as above; design: key to growth: ++ means good growth; + means moderate growth; +/− means poor growth; NG means no growth
# Procedure: as §1, §2, §3
# [9] = system: Enterobacter cloacae (NCTC 11936); assay: as above; design: key to growth: ++ means good growth; + means moderate growth; +/− means poor growth; NG means no growth
# Procedure: as §1, §2, §3
# [10] = system: Escherichia coli (NCTC 14018); assay: as above; design: key to growth: ++ means good growth; + means moderate growth; +/− means poor growth; NG means no growth
# Procedure: as §1, §2, §3
# Enterobacter cloacae = assay: L-alanine-aminopeptidase activity on gelled medium, Example 1; details: 0.3 g/l, 24 hours
# Procedure: (§4) A gelled medium comprising L-alanyl-9-(4-amino-styryl)acridine (hereinafter referred to as L-Ala-4-ASA) or L-alanyl-aminophenylacridine (hereinafter referred to as L-Ala-APA) is prepared as follows: 46.37 g of Columbia agar are added to 1 liter of distilled water and then autoclaved. This reaction medium is separated into two media of equivalent volume. Each of these media comprises, respectively: 0.3 g/l of L-Ala-4-ASA provided by means of the stock solution in DMSO, and 0.3 g/l of L-Ala-APA also provided by means of a stock solution in DMSO.
# (§5) Microorganisms derived from the applicant's collection were seeded onto each of the media, by delimitation as three dials, using a suspension at 0.5 McFarland. The dishes were incubated at 37° C. for 24 hours. The colonies formed were examined visually after incubation for 24 hours. The color of these colonies was noted before and after addition of a drop of hydrochloric acid.
# Escherichia coli = assay: as above; details: 0.3 g/l, 24 hours
# Procedure: as §4, §5
# Candida albicans = assay: as above; details: 0.3 g/l, 24 hours
# Procedure: as §4, §5
# Staphylococcus aureus = assay: as above; details: 0.3 g/l, 24 hours
# Procedure: as §4, §5
# Klebsiella pneumoniae = assay: as above; details: 0.3 g/l, 24 hours
# Procedure: as §4, §5
# Listeria innocua = assay: as above; details: 0.3 g/l, 24 hours
# Procedure: as §4, §5
# Citrobacter koseri = assay: as above; details: 0.3 g/l, 24 hours
# Procedure: as §4, §5
# Streptococcus agalactiae = assay: as above; details: 0.3 g/l, 24 hours
# Procedure: as §4, §5
# Proteus mirabilis = assay: as above; details: 0.3 g/l, 24 hours
# Procedure: as §4, §5
# Enterococcus faecalis = assay: as above; details: 0.3 g/l, 24 hours
# Procedure: as §4, §5
smiles,measurement,setting,value
"C[n+]1c2ccccc2c(-c2ccc(NC(=O)C3CCC(=O)N3)cc2)c2ccccc21.[Cl-] (centres unmarked) [PG-4-AP-10-MA, pyroglutamyl-9-(4-aminophenyl)-10-methyl-acridine]",color of colonies,[1]; 24 h,Colorless
same,growth,[1]; 24 h,++
same,color of colonies,[1]; 48 h,Orange
same,growth,[1]; 48 h,++
same,color of colonies,[2]; 24 h,Colorless
same,growth,[2]; 24 h,++
same,color of colonies,[2]; 48 h,Colorless
same,growth,[2]; 48 h,++
same,color of colonies,[3]; 24 h,Colorless
same,growth,[3]; 24 h,++
same,color of colonies,[3]; 48 h,Colorless
same,growth,[3]; 48 h,++
same,color of colonies,[4]; 24 h,Colorless
same,growth,[4]; 24 h,++
same,color of colonies,[4]; 48 h,Pale orange
same,growth,[4]; 48 h,++
same,color of colonies,[5]; 24 h,Colorless
same,growth,[5]; 24 h,++
same,color of colonies,[5]; 48 h,Colorless
same,growth,[5]; 48 h,++
same,color of colonies,[6]; 24 h,Colorless
same,growth,[6]; 24 h,++
same,color of colonies,[6]; 48 h,Pale orange
same,growth,[6]; 48 h,++
same,color of colonies,[7]; 24 h,Colorless
same,growth,[7]; 24 h,++
same,color of colonies,[7]; 48 h,Colorless
same,growth,[7]; 48 h,++
same,color of colonies,[8]; 24 h,Colorless
same,growth,[8]; 24 h,++
same,color of colonies,[8]; 48 h,Pale orange
same,growth,[8]; 48 h,++
same,color of colonies,[9]; 24 h,Colorless
same,growth,[9]; 24 h,++
same,color of colonies,[9]; 48 h,Pale orange
same,growth,[9]; 48 h,++
same,color of colonies,[10]; 24 h,Colorless
same,growth,[10]; 24 h,++
same,color of colonies,[10]; 48 h,Colorless
same,growth,[10]; 48 h,++
"C[C@H](N)C(=O)Nc1ccc(C=Cc2c3ccccc3nc3ccccc23)cc1 [L-Ala-4-ASA, L-alanyl-9-(4-aminostyryl)acridine]",color of colonies,Enterobacter cloacae; with HCl,gray-mauve
same,color of colonies,Enterobacter cloacae; without HCl,colorless
same,color of colonies,Escherichia coli; with HCl,gray-mauve
same,color of colonies,Escherichia coli; without HCl,colorless
same,color of colonies,Candida albicans; with HCl,colorless
same,color of colonies,Candida albicans; without HCl,colorless
same,color of colonies,Staphylococcus aureus; with HCl,colorless
same,color of colonies,Staphylococcus aureus; without HCl,colorless
same,color of colonies,Klebsiella pneumoniae; with HCl,gray-mauve
same,color of colonies,Klebsiella pneumoniae; without HCl,colorless
same,color of colonies,Listeria innocua; with HCl,colorless
same,color of colonies,Listeria innocua; without HCl,colorless
same,color of colonies,Citrobacter koseri; with HCl,gray-mauve
same,color of colonies,Citrobacter koseri; without HCl,colorless
same,color of colonies,Streptococcus agalactiae; with HCl,colorless
same,color of colonies,Streptococcus agalactiae; without HCl,colorless
same,color of colonies,Proteus mirabilis; with HCl,gray-mauve
same,color of colonies,Proteus mirabilis; without HCl,colorless
same,color of colonies,Enterococcus faecalis; with HCl,colorless
same,color of colonies,Enterococcus faecalis; without HCl,colorless
C[C@H](N)C(=O)Nc1ccc(-c2c3ccccc3nc3ccccc23)cc1 [L-Ala-APA],color of colonies,Enterobacter cloacae; with HCl,mauve
same,color of colonies,Enterobacter cloacae; without HCl,colorless
same,color of colonies,Escherichia coli; with HCl,pale mauve
same,color of colonies,Escherichia coli; without HCl,colorless
same,color of colonies,Candida albicans; with HCl,Colorless
same,color of colonies,Candida albicans; without HCl,colorless
same,color of colonies,Staphylococcus aureus; with HCl,colorless
same,color of colonies,Staphylococcus aureus; without HCl,colorless
same,color of colonies,Klebsiella pneumoniae; with HCl,mauve
same,color of colonies,Klebsiella pneumoniae; without HCl,colorless
same,color of colonies,Listeria innocua; with HCl,colorless
same,color of colonies,Listeria innocua; without HCl,colorless
same,color of colonies,Citrobacter koseri; with HCl,mauve
same,color of colonies,Citrobacter koseri; without HCl,colorless
same,color of colonies,Streptococcus agalactiae; with HCl,colorless
same,color of colonies,Streptococcus agalactiae; without HCl,colorless
same,color of colonies,Proteus mirabilis; with HCl,very pale-
same,color of colonies,Proteus mirabilis; without HCl,colorless
same,color of colonies,Enterococcus faecalis; with HCl,colorless
same,color of colonies,Enterococcus faecalis; without HCl,colorless
